The record followed here is ChEMBL document CHEMBL1201862, “PubChem BioAssay data set” (2004).

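Test compounds were applied to cells in 96-well plates for 48 hours at 5 doses. Here, GI50 denotes the concentration required for 50% inhibition of growth.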 The source made the active and inactive calls. No stated cut-off is given here; in the data, active = GI50 up to about 1.1 µM and inactive = higher.

Among the test systems are HCC 2998; MCF7; NCI-H522; IGROV-1; NCI/ADR-RES; OVCAR-3; NCI-H460; TK-10; SK-MEL-5; SR; NCI-H23; EKVX; RPMI-8226; HCT-116; HL-60; DMS-273; SF-295; COLO 205; MDA-MB-435; CAKI-1.
Common to all, as to assay: growth of human tumour cells (NCI), 48 h

For the compound `Cc1cc2c3ccccc3n(C)c2c2c1C(=O)C=CC2=O`, the GI50 was 20.2 µM (inactive) with HCC 2998; 4.3 µM (inactive) in the test with MCF7; 16.1 µM (inactive) with NCI-H522; 16.8 µM (inactive) in the test on IGROV-1; 33.9 µM (inactive) in the test with NCI/ADR-RES; 15 µM (inactive) in the test with OVCAR-3. Also, the GI50 in the test on NCI-H460 is 17.1 µM (inactive); in the test on TK-10, 16.5 µM (inactive); with SK-MEL-5, 27.4 µM (inactive); with SR it was 4.68 µM (inactive); with NCI-H23 it was 12.4 µM (inactive); in the test on EKVX, 12 µM (inactive). In addition, the GI50 with RPMI-8226 is 1.58 µM (inactive); in the test with HCT-116, 20 µM (inactive); in the test on HL-60, 5.24 µM (inactive); with DMS-273, 13.3 µM (inactive); with SF-295, 27.7 µM (inactive); in the test with COLO 205, 17.9 µM (inactive). The GI50 is 18.9 µM (inactive) in the test with MDA-MB-435 and 14.3 µM (inactive) in the test with CAKI-1.

As to `COc1ccc(N2C(=O)[C@H]3[C@H]4CC(C(C)(C)C)CC[C@H]4c4c(n(C)c5ccccc45)[C@H]3C2=O)cc1` (stereo not given in full), the GI50 in the test on HCC 2998 is 5.62 µM (inactive); in the test with MCF7, > 46.5 µM (inactive); in the test with NCI-H522, > 10 µM (inactive); in the test with IGROV-1 it was > 100 µM (inactive); in the test with NCI/ADR-RES, > 100 µM (inactive); in the test with OVCAR-3, > 100 µM (inactive). The GI50 in the test on NCI-H460 is > 10 µM (inactive); with TK-10, > 10 µM (inactive); in the test on SK-MEL-5 it was 4.65 µM (inactive); in the test on SR, > 100 µM (inactive); in the test with NCI-H23, > 100 µM (inactive); in the test with EKVX it was > 46.5 µM (inactive). Besides, the GI50 was > 100 µM (inactive) with RPMI-8226; > 100 µM (inactive) in the test on HCT-116; > 90.6 µM (inactive) in the test on HL-60; > 100 µM (inactive) in the test on DMS-273; > 100 µM (inactive) with SF-295; > 100 µM (inactive) in the test on COLO 205. Further, the GI50 in the test with MDA-MB-435 and with CAKI-1 was > 100 µM (inactive) throughout.

For the compound `CN(C)CCNC(=O)c1cccc2ccc(-c3ccc(O)cc3)nc12`, the GI50 was 5.86 µM (inactive) in the test with HCC 2998; 0.859 µM (active) with MCF7; 1.36 µM (inactive) in the test on NCI-H522; 2.47 µM (inactive) in the test with IGROV-1; 5.11 µM (inactive) in the test with NCI/ADR-RES; 3.13 µM (inactive) in the test on OVCAR-3. Also, the GI50 with NCI-H460 is 0.548 µM (active); in the test on TK-10, 2.94 µM (inactive); with SK-MEL-5 it was 1.25 µM (inactive); in the test with SR, 2.47 µM (inactive); with NCI-H23, 3.09 µM (inactive); in the test on EKVX, 8.36 µM (inactive). In addition, the GI50 is 2.39 µM (inactive) in the test with RPMI-8226; 0.698 µM (active) in the test with HCT-116; 0.847 µM (active) in the test on HL-60; 0.743 µM (active) with DMS-273; 2.13 µM (inactive) in the test on SF-295; 3.33 µM (inactive) in the test with COLO 205. Besides, the GI50 in the test with MDA-MB-435 is 3.74 µM (inactive); in the test on CAKI-1 it was 1.19 µM (inactive).

For `O=C(c1ccc(Cl)cc1)c1ccc(OCCCOc2ccc(C(=O)c3ccc(Cl)cc3)cc2)cc1`, the GI50 in the test on HCC 2998, in the test on NCI-H522, in the test on IGROV-1, in the test on OVCAR-3, in the test with NCI-H460 and with TK-10 was > 100 µM (inactive) each time. Further, the GI50 in the test with SK-MEL-5, in the test on SR, with NCI-H23, in the test on EKVX, in the test with RPMI-8226 and in the test on HCT-116 was > 100 µM (inactive) each time. Also, the GI50 with HL-60, in the test with DMS-273, in the test with SF-295, in the test on COLO 205 and in the test with CAKI-1 was > 100 µM (inactive) each time.

With `Cc1c(CCCl)c(Cl)n2c(nc3ccccc32)c1C#N`, the GI50 is 1.56 µM (inactive) with HCC 2998; 0.653 µM (active) in the test with MCF7; 0.432 µM (active) in the test with NCI-H522; 1.62 µM (inactive) in the test on IGROV-1; 1.35 µM (inactive) in the test with OVCAR-3; 0.456 µM (active) in the test with NCI-H460. The GI50 is 1.61 µM (inactive) in the test with TK-10; 0.891 µM (active) with SK-MEL-5; 0.112 µM (active) in the test on SR; 0.904 µM (active) in the test with NCI-H23; 3.21 µM (inactive) in the test with EKVX; 0.092 µM (active) in the test on RPMI-8226. The GI50 with HCT-116 was 0.229 µM (active); with HL-60 it was 0.107 µM (active); in the test on DMS-273, 0.457 µM (active); in the test with SF-295 it was 1.31 µM (inactive); in the test with COLO 205 it was 0.991 µM (active); with MDA-MB-435, 0.796 µM (active). Besides, the GI50 in the test on CAKI-1 is 0.597 µM (active).

Take `Cc1cc([N+](=O)[O-])c(S(=O)(=O)c2ccccc2)c([N+](=O)[O-])c1`: the GI50 in the test with HCC 2998 is 21.2 µM (inactive); in the test with NCI-H522, 1.73 µM (inactive); in the test on IGROV-1, 12.6 µM (inactive); in the test on OVCAR-3 it was 5.62 µM (inactive); in the test with NCI-H460, 13.4 µM (inactive); in the test with TK-10, 17.9 µM (inactive). The GI50 in the test with SK-MEL-5 is 14.2 µM (inactive); in the test with SR, 4.59 µM (inactive); in the test with NCI-H23, 8.53 µM (inactive); with EKVX it was 24.2 µM (inactive); in the test on RPMI-8226 it was 14.8 µM (inactive); in the test with HCT-116 it was 9.75 µM (inactive). The GI50 in the test with HL-60 is 2.82 µM (inactive); with DMS-273 it was 12.9 µM (inactive); in the test on SF-295, 18.8 µM (inactive); in the test with COLO 205, 9.51 µM (inactive); with CAKI-1, 3.62 µM (inactive).

In the case of `COc1cc(Br)c(/C=N/N=C(\N)NO)cc1OC`, the GI50 was 12.3 µM (inactive) with HCC 2998; 15.2 µM (inactive) with NCI-H522; 30.4 µM (inactive) in the test on IGROV-1; 33.2 µM (inactive) in the test with OVCAR-3; 5.22 µM (inactive) in the test on NCI-H460; 7.69 µM (inactive) in the test on TK-10. Moreover, the GI50 with SK-MEL-5 was 6.78 µM (inactive); with SR, 11.8 µM (inactive); in the test with NCI-H23, 26 µM (inactive); in the test on EKVX, 7.21 µM (inactive); with RPMI-8226, > 100 µM (inactive); in the test with HCT-116, 15.2 µM (inactive). In addition, the GI50 is 26.9 µM (inactive) in the test with HL-60; 40.8 µM (inactive) in the test on DMS-273; 28.5 µM (inactive) in the test on SF-295; 11 µM (inactive) in the test with COLO 205; 14.7 µM (inactive) in the test on CAKI-1.
